Data from patent publication US20250320213A1, “Nitrogen-Containing Heterocyclic Compounds” (Pfizer Inc., priority 2024, published 2025).

These compounds were tested against T1, STAT6 (Homo sapiens, UniProt P42226) (assay: STAT6 Reporter Luciferase Assay (IL-13 stimulated HaCaT keratinocyte NanoLuc reporter cells)). Settings: IL-13 stimulated HaCaT STAT6 NanoLuc reporter cells; read-out: Reporter EC50.
T1 construct: stably transfected HaCaT keratinocyte cell line, which expresses NanoLuc luciferase reporter gene under the transcriptional control of the STAT6 responsive promoter; endogenous in cells; host or cells: HaCaT keratinocyte reporter cell line (stably transfected with a NanoLuc reporter)
T1 sequence (P42226 1-847): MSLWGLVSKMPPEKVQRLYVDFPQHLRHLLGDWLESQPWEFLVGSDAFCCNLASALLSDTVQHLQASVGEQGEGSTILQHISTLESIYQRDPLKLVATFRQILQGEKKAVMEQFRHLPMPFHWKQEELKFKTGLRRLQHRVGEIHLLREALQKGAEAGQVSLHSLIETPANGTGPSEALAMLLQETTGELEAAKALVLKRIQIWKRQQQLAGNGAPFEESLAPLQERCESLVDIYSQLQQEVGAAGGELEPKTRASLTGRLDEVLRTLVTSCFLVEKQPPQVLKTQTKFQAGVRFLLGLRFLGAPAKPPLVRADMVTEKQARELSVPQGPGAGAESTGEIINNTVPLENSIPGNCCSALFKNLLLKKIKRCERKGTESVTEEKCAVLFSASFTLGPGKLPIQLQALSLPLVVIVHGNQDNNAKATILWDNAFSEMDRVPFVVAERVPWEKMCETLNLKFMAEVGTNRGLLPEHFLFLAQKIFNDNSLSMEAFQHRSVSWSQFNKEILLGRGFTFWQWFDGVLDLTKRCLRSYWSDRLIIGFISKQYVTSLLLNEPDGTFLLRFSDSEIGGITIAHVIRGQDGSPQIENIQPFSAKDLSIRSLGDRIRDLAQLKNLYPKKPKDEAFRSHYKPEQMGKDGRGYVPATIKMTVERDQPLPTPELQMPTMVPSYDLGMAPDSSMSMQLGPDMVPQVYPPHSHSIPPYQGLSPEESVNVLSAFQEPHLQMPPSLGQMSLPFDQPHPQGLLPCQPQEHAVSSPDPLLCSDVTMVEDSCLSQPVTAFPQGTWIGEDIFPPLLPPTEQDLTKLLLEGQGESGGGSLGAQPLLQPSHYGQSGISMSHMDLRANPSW
Format: cell-based
Outline: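 IL-13 (0.12 nM, 4 h) stimulated STAT6 reporter activity in HaCaT cells after a 2 h compound pre-incubation; NanoLuc signal was measured.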

First: CC(C)n1nc(C(=O)NCc2ccc(NC(=O)N(C)C)cc2)c2c1CCN(c1ccc(C(=O)N3CCc4cnc(O)cc4C3)cn1)C2 [Example 412, N-(4-(3,3-dimethylureido)benzyl)-5-(5-(7-hydroxy-1,2,3,4-tetrahydro-2,6-naphthyridine-2-carbonyl)pyridin-2-yl)-1-isopropyl-4,5,6,7-tetrahydro-1H-pyrazolo[4,3-c]pyridine-3-carboxamide]
Second: CC(C)n1nc(C(=O)NCc2ccc(NC(=O)N(C)C)cc2)c2c1CCN(c1ccc(C(=O)N3CCn4cncc4C3)cn1)C2 [Example 438, N-(4-(3,3-dimethylureido)benzyl)-1-isopropyl-5-(5-(5,6,7,8-tetrahydroimidazo[1,5-a]pyrazine-7-carbonyl)pyridin-2-yl)-4,5,6,7-tetrahydro-1H-pyrazolo[4,3-c]pyridine-3-carboxamide]
The EC50 of the first is 3.8-fold higher: 396 nM for the first, 105 nM for the second. The second is the more potent here.

First: CC(C)n1nc(C(=O)NCc2ccc(NC(=O)N(C)C)cc2)c2c1CCN(c1ccc(C(=O)N3C[C@@H]4C[C@H]3C(=O)N4)cn1)C2 [Example 227, N-(4-(3,3-dimethylureido)benzyl)-1-isopropyl-5-(5-((1S,4S)-6-oxo-2,5-diazabicyclo[2.2.1]heptane-2-carbonyl)pyridin-2-yl)-4,5,6,7-tetrahydro-1H-pyrazolo[4,3-c]pyridine-3-carboxamide]
Second: CC(=O)N1[C@H](C)CN(C(=O)c2ccc(N3CCc4c(c(C(=O)NCc5ccc(NC(=O)N(C)C)cc5)nn4C(C)C)C3)nc2)C[C@@H]1C [Example 299, 5-(5-((3S,5R)-4-acetyl-3,5-dimethylpiperazine-1-carbonyl)pyridin-2-yl)-N-(4-(3,3-dimethylureido)benzyl)-1-isopropyl-4,5,6,7-tetrahydro-1H-pyrazolo[4,3-c]pyridine-3-carboxamide]
The EC50 of the first is higher: greater than 6120 nM for the first, 241 nM for the second. The second is the more potent here.

`CC(C)n1nc(C(=O)NCc2ccc(NC(=O)N3CCN(C)C4(CC4)C3)c(F)c2)c2c1[C@@H](C)CN(c1ccc(C(=O)N(C)C)cc1)C2` [Example 648, (S)-5-(4-(dimethylcarbamoyl)phenyl)-N-(3-fluoro-4-(4-methyl-4,7-diazaspiro[2.5]octane-7-carboxamido)benzyl)-1-isopropyl-7-methyl-4,5,6,7-tetrahydro-1H-pyrazolo[4,3-c]pyridine-3-carboxamide] and `CC(C)n1nc(C(=O)NCc2ccc(NC(=O)N3CC4(CCCN(C)C4)C3)c(F)c2)c2c1[C@@H](C)CN(c1ccc(C(=O)N(C)C)cc1)C2` [Example 646, (S)-5-(4-(dimethylcarbamoyl)phenyl)-N-(3-fluoro-4-(6-methyl-2,6-diazaspiro[3.5]nonane-2-carboxamido)benzyl)-1-isopropyl-7-methyl-4,5,6,7-tetrahydro-1H-pyrazolo[4,3-c]pyridine-3-carboxamide] are the same in EC50: 1 nM for the first, 1 nM for the second.

Compared with `CC(=O)N1C[C@@H]2CN(C(=O)c3ccc(N4CCc5c(c(C(=O)NCc6ccc(NC(=O)N(C)C)cc6)nn5C(C)C)C4)nc3)C[C@@H]2C1` [Example 296, 5-(5-((3aR,6aS)-5-acetyloctahydropyrrolo[3,4-c]pyrrole-2-carbonyl)pyridin-2-yl)-N-(4-(3,3-dimethylureido)benzyl)-1-isopropyl-4,5,6,7-tetrahydro-1H-pyrazolo[4,3-c]pyridine-3-carboxamide], `CC(C)n1nc(C(=O)NCc2ccc(NC(=O)N(C)C)cc2)c2c1CCN(c1ccc(C(=O)N3Cc4ccc(C#N)cc4C3)cn1)C2` [Example 411, 5-(5-(5-cyanoisoindoline-2-carbonyl)pyridin-2-yl)-N-(4-(3,3-dimethylureido)benzyl)-1-isopropyl-4,5,6,7-tetrahydro-1H-pyrazolo[4,3-c]pyridine-3-carboxamide] is 65-fold lower in EC50: 523 nM for the first, 8 nM for the second. The second is the more potent here.

Same assay, conditions: STAT6 NanoLuc luciferase reporter, IL-13 stimulated HaCaT keratinocyte cells; read-out: Reporter EC50

Work on `CC(C)n1nc(C(=O)NCc2ccc(NC(=O)N3CCC(CC#N)CC3)cc2)c2c1CCN(c1ccc(C(=O)N(C)C)cn1)C2` [Example 149, N-(4-(4-(cyanomethyl)piperidine-1-carboxamido)benzyl)-5-(5-(dimethylcarbamoyl)pyridin-2-yl)-1-isopropyl-4,5,6,7-tetrahydro-1H-pyrazolo[4,3-c]pyridine-3-carboxamide] yielded an EC50 of 5 nM.
